Reference: publication PMC8196580, “Identification of Kaurane-Type Diterpenes as Inhibitors of Leishmania Pteridine Reductase I” (Molecules, 2021)
Like-named read-outs stand apart in the source and are kept apart here.

How the values were obtained:
L. major [1] = experiment: ChEMBL dataset of pIC50 values against L. major used for the RF model (Table S1); type: cell-based, Leishmania major; also: call rule not given here
L. major [2] = system: L. major; parameters: method as in ChEMBL; settings: ref ChEMBL, cited from earlier work
[3] = Active/Inactive class assigned to the ChEMBL pIC50 value for Random forest model construction, ref ChEMBL
[4] = ChemBL structures with pIC50 values used for Random forest model construction, L. major
[5] = Active/Inactive class assigned to ChemBL structures for Random forest model construction (Table S1)
[6] = ChemBL structures with pIC50 values used for Random forest model construction (Table S1)

Row | SMILES | Outcome (L. major [1]; [3]) | pIC50 Value (L. major [2]; [4]) | Outcome (L. major [1]; [5]) | pIC50 Value (L. major [2]; [6])
1 | COc1ccc(-c2nc3ccccn3c2-c2ccccc2)cc1 [CHEMBL2151881] | Inactive | 4.58 |  | 
2 | Cl.N=C(NCc1ccccc1)c1ccc(N2CCN(c3nnc(-c4ccc([N+](=O)[O-])o4)s3)CC2)cc1 [CHEMBL1783206] | Active | 5.05 |  | 
3 | CCCC/C=C/C=C/c1nc2ccc(OC)cc2n2cccc12 [CHEMBL3260216] |  |  | Active | 5.36
4 | C[C@]12CC[C@H](O)C[C@@H]1CC[C@@H]1[C@@H]2CC[C@@]2(C)[C@H]1CC[C@@H]2[C@@](C)(O)c1cccnc1 [CHEMBL1214312] | Inactive | 4.00 |  | 
5 | COc1cccc(/C=C/C(=O)C2=Cc3cc(Cl)ccc3OC2)c1OC [CHEMBL1095287] |  |  | Active | 5.55
6 | COc1ccc(/C=N/NC(N)=S)cc1OCc1cn(-c2ccc(C(=O)O)cc2)nn1 [CHEMBL4174032] |  |  | Active | 5.30
7 | C=C1CCC[C@@]2(C)CC3=C(C[C@@H]12)C(=O)C=CC3=O [CHEMBL401659] | Inactive | 4.99 |  | 
8 | COc1ccc(/C=N/NC(=O)c2ccc(-c3nnc(-c4ccccc4OC)o3)cc2)cc1O [CHEMBL4069376] | Active | 5.19 |  | 
9 | COc1ccc(/C=N/NC(=O)c2ccccc2OC)cc1OC [CHEMBL2382040] | Inactive | 4.88 |  | 
10 | COc1cccc2cc(C)cc(O)c12 [CHEMBL2071228] | Inactive | 4.30 |  | 
11 | O=C(c1ccccc1)N1CCN(c2nnc(-c3ccc([N+](=O)[O-])o3)s2)CC1 [CHEMBL195349] | Inactive | 4.93 |  | 
12 | c1ccc(-c2nc3ccccn3c2-c2ccncc2)cc1 [CHEMBL2151870] | Active | 5.19 |  | 
13 | CN1CCN(c2nnc(-c3ccc([N+](=O)[O-])o3)s2)CC1 [CHEMBL372024] | Active | 5.14 |  | 
14 | O=C(/C=C/c1ccc(-n2ccnc2)cc1)c1ccc(F)cc1 [CHEMBL570258] |  |  | Active | 5.61
15 | O=[N+]([O-])c1ccc(-c2nnc(N3CCNCC3)s2)o1 [CHEMBL195646] | Active | 5.05 |  | 
16 | Cc1ccc2cc(/C=C/C(=O)c3ccc(Cl)s3)c(Cl)nc2c1 [CHEMBL1940856] |  |  | Active | 5.63
17 | CN(C)CCNc1nccn2c(I)c(-c3ccc(F)cc3)nc12 [CHEMBL3634360] | Inactive | 4.61 |  | 
18 | CCCCN1CSC(=S)N(CC(=O)O)C1 [CHEMBL4278695] | Inactive | 4.44 |  | 
19 | O=[N+]([O-])c1ccc2nc(-c3ccccc3Cl)[nH]c2c1 [CHEMBL1947235] |  |  | Active | 5.48
20 | CCCCCCNc1ccc(Nc2c3ccccc3nc3ccccc23)cc1OC [CHEMBL88507] |  |  | Active | 6.40
21 | C[C@@H]1[C@H](O)[C@@H](C)/C=C/C=C/C=C/C=C/C=C/C=C/C=C/[C@H](O[C@@H]2O[C@H](C)[C@@H](O)[C@H](N)[C@@H]2O)C[C@@H]2O[C@](O)(C[C@@H](O)C[C@@H](O)[C@H](O)CC[C@@H](O)C[C@@H](O)CC(=O)O[C@H]1C)C[C@H](O)[C@H]2C(=O)O [CHEMBL267345] | Inactive | 3.27 |  | 

Row | SMILES | Outcome (L. major [1]; [3]) | pIC50 Value (L. major [2]; [4]) | Outcome (L. major [1]; [5]) | pIC50 Value (L. major [2]; [6])
22 | COc1ccc(-c2c(-c3ccccc3)nc3ccccn23)cc1 [CHEMBL2151858] | Active | 5.14 |  | 
23 | CCOc1ccc(/N=C/c2cn(C)c3ccccc23)cc1 [CHEMBL2071554] |  |  | Active | 5.50
24 | CCOC(=O)C1=C(C)NC(=S)NC1c1ccc(C)cc1 (stereo not drawn) [CHEMBL3786732] |  |  | Active | 5.66
25 | COc1ccccc1-c1nnc(-c2ccc(C(=O)N/N=C/c3c(O)cc(O)cc3O)cc2)o1 [CHEMBL4080097] |  |  | Active | 5.32
26 | Cc1cccc2cc(/C=C/C(=O)c3sccc3Br)c(Cl)nc12 [CHEMBL1940869] |  |  | Active | 5.63
27 | COc1ccc(OC)c2c(O)cc(C)cc12 [CHEMBL2071229] | Inactive | 4.42 |  | 
28 | COc1cc([N+](=O)[O-])ccc1COP(N)(=O)N(CCCl)CCCl (stereo not drawn) [CHEMBL1256965] | Inactive | 4.81 |  | 
29 | C=CC(C)(C)c1cc(/C=C/C(=O)c2ccc(O)cc2)c(OC)cc1O [CHEMBL139702] | Inactive | 4.85 |  | 
30 | COc1ccccc1C(=O)N/N=C/c1cccc(O)c1O [CHEMBL2382046] | Inactive | 4.17 |  | 
31 | COc1ccccc1C(=O)N/N=C/c1cccs1 [CHEMBL2382043] |  |  | Active | 5.60
32 | O=[N+]([O-])c1ccc(-c2nnc(N3CCNCC3)s2)s1 [CHEMBL193685] | Inactive | 3.82 |  | 
33 | COc1ccccc1-c1nnc(-c2ccc(C(=O)N/N=C/c3cccc(Cl)c3)cc2)o1 [CHEMBL4096109] | Inactive | 4.68 |  | 
34 | C[C@H]1COC2=C1C(=O)C(=O)c1c2ccc2c1CCCC2(C)C [CHEMBL187460] | Inactive | 4.74 |  | 
35 | c1ccc2c(Nc3ccc(CN4CCCC4)cc3)c3ccccc3nc2c1 [CHEMBL91079] |  |  | Active | 6.70
36 | Fc1ccc(-c2nc3ccccn3c2-c2cccnc2)cc1 [CHEMBL2151875] | Inactive | 4.42 |  | 
37 | C/C=C/C=C/c1nc2cccc(OC)c2n2cccc12 [CHEMBL3260209] |  |  | Active | 5.48
38 | Cc1ccc2cc(C3CC(c4ccc(Cl)s4)=NN3)c(Cl)nc2c1 (stereo not drawn) [CHEMBL2236141] |  |  | Active | 5.64
39 | CC(=O)C1=C(CNc2ccc(C(=O)/C=C/c3ccc(Cl)cc3)cc2)N(C)C(=O)NC1c1ccccc1 (stereo not drawn) [CHEMBL3785674] |  |  | Active | 5.97
40 | OC(Cn1cncn1)(Cn1cncn1)c1ccc(F)cc1F [CHEMBL106] | Inactive | 3.79 |  | 
41 | O=C(c1ccc(Cl)cc1)N1CCN(c2nnc(-c3ccc([N+](=O)[O-])s3)s2)CC1 [CHEMBL515851] | Inactive | 4.62 |  | 
42 | CC(=O)N1CCN(c2nnc(-c3ccc([N+](=O)[O-])o3)s2)CC1 [CHEMBL192375] |  |  | Active | 5.96

Row | SMILES | Outcome (L. major [1]; [3]) | pIC50 Value (L. major [2]; [4]) | Outcome (L. major [1]; [5]) | pIC50 Value (L. major [2]; [6])
43 | CC1=C(C(=O)/C=C/c2cccc([N+](=O)[O-])c2)C(c2ccccc2)NC(=O)N1C (stereo not drawn) [CHEMBL3785174] |  |  | Active | 5.71
44 | COc1cc(OC)c2c(C)[n+](-c3cccc(C)c3C)c(C)cc2c1.F[B-](F)(F)F [CHEMBL480823] | Inactive | 4.94 |  | 
45 | COc1ccccc1-c1nnc(-c2ccc(C(=O)N/N=C/c3ccc(O)cc3O)cc2)o1 [CHEMBL4087969] |  |  | Active | 5.42
46 | COc1cc2c(c(OC)c1-c1c(C)cc3cccc(OC)c3c1O)C(C)=N[C@@H](C)C2 [CHEMBL222436] | Inactive | 4.00 |  | 
47 | COc1cc2c(c(OC)c1)C(C)=[N+](c1ccc3cc(C)cc(OC)c3c1O)[C@@H](C)C2.O=C([O-])C(F)(F)F [CHEMBL426747] |  |  | Active | 5.91
48 | Clc1cc(Cl)cc(-c2nc3ccccn3c2-c2cccnc2)c1 [CHEMBL2151990] | Inactive | 4.50 |  | 
49 | COc1ccccc1C(=O)N/N=C/c1ccc(O)cc1 [CHEMBL2382049] | Inactive | 4.24 |  | 
50 | COC(=O)C1=C(C)NC(C)=C(C(=O)OC)C1c1ccccc1[N+](=O)[O-] [CHEMBL193] | Inactive | 3.74 |  | 
51 | COc1ccccc1C(=O)N/N=C/c1cc(O)c(O)c(O)c1 [CHEMBL2382033] | Inactive | 4.50 |  | 
52 | Oc1ccc(-c2nc3ccccc3[nH]2)cc1 [CHEMBL377740] |  |  | Active | 5.36
53 | C=C[C@@]1(C)CC2=C(C[C@H]1C(=C)C)C(O)C=CC2O (stereo partly drawn) [CHEMBL257133] | Inactive | 4.74 |  | 
54 | C/C=C/C=C/c1nc2ccccc2n2ccc(OCC)c12 [CHEMBL3260219] |  |  | Active | 5.82
55 | COc1cc(NS(C)(=O)=O)ccc1Nc1c2ccccc2nc2ccccc12 [CHEMBL43] |  |  | Active | 5.82
56 | COc1ccccc1-c1nnc(-c2ccc(C(=O)N/N=C/c3cccc([N+](=O)[O-])c3)cc2)o1 [CHEMBL4086911] | Inactive | 4.13 |  | 
57 | O=C(CCl)N(c1ccccc1)c1ccccc1 [CHEMBL1603760] | Inactive | 4.39 |  | 
58 | C/C=C/c1cc(O)c(OC)c(OC)c1 [CHEMBL489518] | Inactive | 3.43 |  | 
59 | O=[N+]([O-])c1ccc(-c2nnc(NCc3cn(Cc4ccccc4Cl)nn3)s2)o1 [CHEMBL1951525] | Inactive | 4.72 |  | 
60 | COc1ccc(/C=N/NC(=O)c2ccccc2OC)cc1Br [CHEMBL2382039] | Active | 5.12 |  | 
61 | COc1cc(CO)c(-c2ccc3c(c2O)[C@@H](C)N[C@H](C)C3)c2cccc(O)c12 [CHEMBL222805] | Inactive | 4.00 |  | 
62 | CCCc1ccc(-[n+]2c(C)cc3cc(OC)cc(OC)c3c2C)cc1.F[B-](F)(F)F [CHEMBL517690] |  |  | Active | 5.79
63 | CN(C)c1ccc(Nc2c3ccc(NC(=O)CCN4CCCC4)cc3nc3cc(NC(=O)CCN4CCCC4)ccc23)cc1 [CHEMBL336434] | Inactive | 4.90 |  | 
